The results in this text go back to patent US9949979B2, “Use of inhibitors of the activity or function of PI3K” (NOVARTIS AG, priority 2011, dated 2018).

The target in assay [1] is PI3K delta (Homo sapiens, UniProt O00329). Kind of assay: Enzymatic PI3K delta isoform inhibition (lipid kinase activity, Kinase-Glo). It is filed as biochemical. Details: for the full-length p110-d subunit are generated and fused by overlapping PCR; His tag (C); made in house; host or cells: baculovirus; Tn5 (Trichoplusia ni) or TiniPro insect cells. To be noted: Enzymatic Assay. As for the experimental part: (§1) 1 Determination of Enzymatic PI3K Alpha and PI3K Delta Isoform Inhibition
(§2) 1.1 Test of Lipid Kinase Activity
(§3) The kinase reaction is performed in a final volume of 50 μl per well of a half area COSTAR, 96 well plate. The final concentrations of ATP and phosphatidyl inositol in the assay are 5 μM and 6 μg/mL, respectively. The reaction is started by the addition of PI3 kinase, e.g. PI3 kinase δ.
(§4) p110δ. The components of the assay are added per well as follows: • 10 μl test compound in 5% DMSO per well in […]. • Total activity is determined by addition 10 μl of 5% vol/vol DMSO in the first 4 wells of column 1 and the last 4 wells of column 12. • The background is determined by addition of 10 μM control compound to the last 4 wells of column 1 and the first 4 wells of column 12. • 2 mL ‘Assay mix’ are prepared per plate: • 1.912 mL of HEPES assay buffer • 8.33 μl of 3 mM stock of ATP giving a final concentration of 5 μM per well • 1 μl of [^33P]ATP on the activity date giving 0.05 μCi per well • 30 μl of 1 mg/mL PI stock giving a final concentration of 6 μg/mL per well • 5 μl of 1 M stock MgCl2 giving a final concentration of 1 mM per well • 20 μl of the assay mix are added per well. • 2 mL ‘Enzyme mix’ are prepared per plate (x* μl PI3 kinase p110β in 2 mL of kinase buffer). The ‘Enzyme mix’ is kept on ice during addition to the assay plates. The volume of enzyme is dependent on the enzymatic activity of the batch in use. • 20 μl ‘Enzyme mix’ are added/well to start the reaction. • The plate is then incubated at room temperature for 90 minutes. • The reaction is terminated by the addition of 50 μl WGA-SPA bead (wheat germ agglutinin-coated Scintillation Proximity Assay beads) suspension per well. • The assay plate is sealed using TopSeal-S (heat seal for polystyrene microplates, PerkinElmer LAS [Deutschland] GmbH, Rodgau, Germany) and incubated at room temperature for at least 60 minutes. • The assay plate is then centrifuged at 1500 rpm for 2 minutes using the Jouan bench top centrifuge (Jouan Inc., Nantes, France). • The assay plate is counted using a Packard TopCount, each well being counted for 20 seconds.
(§5) The final concentrations of ATP and phosphatidyl inositol (PI) in the assay are 1 μM and 10 μg/mL, respectively. The reaction is started by the addition of ATP.
(§6) The components of the assay are added per well as follows:
(§7) IC50 is determined by a four parameter curve fitting routine that comes along with “excel fit”.
(§8) To start the reaction, 10 μl of 10 nM PI3 kinase and 5 μg/mL 1-alpha-phosphatidylinositol (PI) are added into each well followed by 10 μl of 2 μM ATP. The reaction is performed until approx 50% of the ATP is depleted, and then stopped by the addition of 20 μl of Kinase-Glo solution (Promega Corp., Madison, Wis., USA). The stopped reaction is incubated for 5 minutes and the remaining ATP is then detected via luminescence. IC50 values are then determined.
For orientation: Kinase-Glo measures the ATP left after a reaction by luminescence.

Assay [2] has as its target T1, PI3K alpha (Homo sapiens, UniProt P42336).
T1 construct: His tag (C); made in house; host or cells: baculovirus; Tn5 (Trichoplusia ni) or TiniPro insect cells
Kind of assay: Enzymatic PI3K alpha isoform inhibition (lipid kinase activity, Kinase-Glo). It is filed as biochemical. As to conditions: Enzymatic Assay. The protocol:
as §1, §2, §3, §4, §5, §6, §7, §8

The test system of assay [3] is TLR9. In words: TLR9-induced IFNalpha in human PBMC (CpG2216, AlphaLISA). It is filed as cell-based. As to conditions: read-out: TLR9-ligand induced IFNα in human PBMC IC50. The protocol: (§9) 2.4 Determination of TLR9-Induced IFNalpha in Human Peripheral Blood Mononuclear Cells (PBMCs) and Isolated Plasmacytoid Dendritic Cells (pDCs)
Human blood (ca. 75 ml) was collected in 10 S-Monovette tubes containing Heparin (S-Monovette 7.5 mL NH Heparin 16 IU/mL blood; Starstedt). Leucosep™ tubes (30 mL #227290; Greiner Bio-one) were prepared by addition of 15 ml lymphocyte separation medium LSM1077™ per tube (#J15-004; PAA Laboratories) and centrifugation for 30 sec at 1000 g. Some 25 ml blood was transferred to Leucosep™ tubes following dilution with equal parts of PBS (without Ca2+/Mg2+; #14190-094). […] The PBMC were counted using a Countess® Automated cell counter (sample was pre-diluted 1:10 in Media, prior to the addition of equal volume (10 μl) of Trypan Blue). […]
(§10) Compounds were pre-diluted in 100% v/v DMSO (#41640-100 mL; Sigma-Aldrich), followed by transfer in Media (to achieve a final DMSO concentration of 0.25%). […] Plates were briefly centrifuged (200×g for 2 min at 22° C.) and supernatant samples (30 μl) removed for quantification of IFNα levels.
For quantification of IFNalpha the human interferon AlphaLISA Kit (#AL264F) from PerkinElmer was used. […] Data were collected for analysis and quantification of IFNα levels.
Data were analysed using Excel XL fit 4.0 (Microsoft) with XLfit add-in (IDBS; version 4.3.2). […]
For orientation: In Alpha technology, singlet oxygen from a donor bead excites a nearby acceptor bead.

Assay [4] has as its system TLR9. Kind of assay: TLR9-induced IFNalpha in isolated human pDCs (CpG2216, AlphaLISA). It is filed as cell-based. As to conditions: read-out: TLR9-ligand induced IFNα in human pDCs IC50. The protocol: as §9
Human PBMCs were prepared using Buffy Coats as source material from healthy donations (approx. 50 ml obtained from Blutspendezentrum SRK Basel) and processed as indicated above. […]
as §10
For quantification of IFNalpha the human interferon AlphaLISA Kit (#AL264F) from PerkinElmer was used. […] After incubation, the plates were read with an EnVision™ multiplate reader equipped with the ALPHA option using the instrument's own “AlphaScreen standard settings” (e.g. total measurement time: 550 ms, Laser 680 nm excitation time: 180 ms, mirror: D640 as, emission filter: M570w, center wavelength 570 nm, bandwidth 100 nm, transmittance 75%). Data were collected for analysis and quantification of IFNα levels.
Data were analysed using Excel XL fit 4.0 (Microsoft) with XLfit add-in (IDBS; version 4.3.2). Specific IFNα concentrations were determined following extrapolation to standard curves using human IFNα B (2b). […]

The test system of assay [5] is TLR9. Kind of assay: TLR9-induced IL-6 in murine splenocytes (CpG1826, ELISA). It is filed as cell-based, C57BL/6 mice. To be noted: Mus musculus, Splenocyte; read-out: TLR9-ligand induced IL-6 in murine splenocytes IC50. As for the experimental part: 2.2 Determination of TLR9-Induced IL-6 in Murine Splenocytes
Spleens were dissected from C57BL/6 mice immediately following euthanasia. Excess fat was trimmed from the spleens prior to mashing the spleen through a […] cell strainer using a plunger from a 5 ml syringe. A single cell suspension was prepared and the volume was adjusted to 15 ml in a 50 ml Falcon tube using cold PBS. Cells were centrifuged at 1500 rpm for 5 minutes at 4° C. degrees prior to removal of supernatant and re-suspension in 5 ml of red blood cell lysis buffer per spleen and incubation for 5 minutes at room temperature. Ice cold PBS (30 ml) was added to the cells prior to centrifugation at 1500 rpm for 5 minutes at 4° C. The supernatant was removed and the cells were washed twice with 40 ml of murine splenocyte culture media (MSCM). […] Cells were re-suspended in 10-20 ml of MSCM and counted using a Countess cell counter. […]
After overnight culture, cells were transferred to 96-well V-bottomed plates and centrifuged at 2000 rpm for 5 minutes at room temperature. Subsequently 150 μl of each culture supernatant was transferred to 96-well flat-bottomed plates and […] were measured using commercially available mouse IL-6 sandwich ELISA kit (R&D systems). […] IL-6 levels were measured using a SpectraMax 190 Plate Reader (450 nm) and analyzed using SoftMax Pro and GraphPad Prism software.
A general note: ELISA stands for enzyme-linked immunosorbent assay.

PI3K delta, sequence (O00329 with tags, fused parts or gaps limits assumed): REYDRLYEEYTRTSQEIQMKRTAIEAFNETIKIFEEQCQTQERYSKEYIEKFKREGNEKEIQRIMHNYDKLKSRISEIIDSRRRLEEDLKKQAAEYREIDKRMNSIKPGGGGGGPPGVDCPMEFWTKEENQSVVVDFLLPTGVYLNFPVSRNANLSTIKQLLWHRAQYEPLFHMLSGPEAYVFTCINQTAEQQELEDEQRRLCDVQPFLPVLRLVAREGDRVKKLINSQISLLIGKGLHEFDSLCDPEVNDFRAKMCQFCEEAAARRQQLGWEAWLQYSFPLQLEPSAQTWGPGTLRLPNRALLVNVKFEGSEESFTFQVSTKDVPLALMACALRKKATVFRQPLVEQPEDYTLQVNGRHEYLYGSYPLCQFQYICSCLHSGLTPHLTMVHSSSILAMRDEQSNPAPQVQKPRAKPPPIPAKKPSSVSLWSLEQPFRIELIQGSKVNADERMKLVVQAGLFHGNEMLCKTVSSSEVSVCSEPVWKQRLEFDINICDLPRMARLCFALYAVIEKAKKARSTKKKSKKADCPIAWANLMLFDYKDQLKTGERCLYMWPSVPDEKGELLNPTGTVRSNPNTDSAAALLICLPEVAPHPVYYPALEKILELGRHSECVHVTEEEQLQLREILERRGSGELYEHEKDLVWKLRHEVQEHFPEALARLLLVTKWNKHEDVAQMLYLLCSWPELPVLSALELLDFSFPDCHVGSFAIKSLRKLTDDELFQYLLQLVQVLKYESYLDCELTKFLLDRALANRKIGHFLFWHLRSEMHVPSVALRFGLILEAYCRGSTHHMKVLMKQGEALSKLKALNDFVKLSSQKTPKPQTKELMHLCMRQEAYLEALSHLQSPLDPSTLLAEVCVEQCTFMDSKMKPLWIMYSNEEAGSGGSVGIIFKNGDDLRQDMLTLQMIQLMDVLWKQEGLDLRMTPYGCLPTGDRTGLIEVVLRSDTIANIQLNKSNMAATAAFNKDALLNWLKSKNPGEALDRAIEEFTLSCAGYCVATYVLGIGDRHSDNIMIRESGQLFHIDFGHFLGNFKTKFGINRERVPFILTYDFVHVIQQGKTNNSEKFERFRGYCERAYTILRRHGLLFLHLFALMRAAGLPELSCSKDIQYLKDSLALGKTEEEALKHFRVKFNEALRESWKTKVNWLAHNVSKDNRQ
T1 sequence (P42336 with tags, fused parts or gaps limits assumed): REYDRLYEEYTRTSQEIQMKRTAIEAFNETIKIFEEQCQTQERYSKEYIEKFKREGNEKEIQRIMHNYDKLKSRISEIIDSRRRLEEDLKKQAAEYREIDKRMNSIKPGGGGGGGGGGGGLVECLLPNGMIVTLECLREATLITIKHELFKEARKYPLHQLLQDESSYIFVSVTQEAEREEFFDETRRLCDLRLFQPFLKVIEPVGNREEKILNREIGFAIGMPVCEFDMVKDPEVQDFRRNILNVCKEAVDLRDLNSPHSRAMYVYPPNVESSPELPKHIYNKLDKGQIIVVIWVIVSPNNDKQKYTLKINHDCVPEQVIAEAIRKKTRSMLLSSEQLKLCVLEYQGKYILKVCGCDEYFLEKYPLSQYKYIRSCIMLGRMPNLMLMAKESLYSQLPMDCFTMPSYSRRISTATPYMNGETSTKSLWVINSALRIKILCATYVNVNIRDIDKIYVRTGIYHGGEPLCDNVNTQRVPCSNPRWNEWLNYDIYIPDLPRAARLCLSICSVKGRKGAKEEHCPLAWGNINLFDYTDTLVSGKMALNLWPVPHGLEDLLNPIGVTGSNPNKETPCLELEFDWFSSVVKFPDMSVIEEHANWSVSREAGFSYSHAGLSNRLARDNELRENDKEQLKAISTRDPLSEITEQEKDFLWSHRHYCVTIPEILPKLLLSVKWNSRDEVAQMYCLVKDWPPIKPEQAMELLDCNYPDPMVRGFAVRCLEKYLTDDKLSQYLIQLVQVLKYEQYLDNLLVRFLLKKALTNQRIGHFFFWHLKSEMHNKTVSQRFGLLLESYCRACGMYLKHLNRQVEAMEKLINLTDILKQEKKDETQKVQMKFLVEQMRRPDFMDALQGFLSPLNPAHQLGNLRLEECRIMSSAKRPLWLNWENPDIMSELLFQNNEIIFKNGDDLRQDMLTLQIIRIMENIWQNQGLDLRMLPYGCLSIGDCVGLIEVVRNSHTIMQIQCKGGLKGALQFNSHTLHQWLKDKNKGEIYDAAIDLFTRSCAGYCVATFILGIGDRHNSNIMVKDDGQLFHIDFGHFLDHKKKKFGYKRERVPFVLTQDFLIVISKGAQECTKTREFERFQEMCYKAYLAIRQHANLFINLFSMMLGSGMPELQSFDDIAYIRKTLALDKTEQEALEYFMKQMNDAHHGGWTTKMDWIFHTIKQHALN

By IC50 is commonly meant the concentration that gives 50% inhibition. As for `CC(=O)N1CCN(C(=O)c2cccc(-c3ncnc4ccc(-c5ccc(C)nc5)cc34)c2)CC1` [6′], the IC50 in assay [1] was 8.62 nM; in assay [2] it was 589 nM.

In the case of `COc1ccc(-c2ccc3ncnc(-c4cccc(C(=O)N5CCN(C(C)=O)CC5)c4)c3c2)cc1C(F)(F)F` [9′], the IC50 was found to be 10 nM in assay [1] and 1400 nM in assay [2].

Take `Cc1ccc(-c2ccc3ncnc(-c4cccc(C(=O)N5CCN(C)CC5)c4)c3c2)cn1` [19′]: the IC50 in assay [1] turned out to be 11.5 nM; in assay [2], 678 nM.

In the case of `COc1ccc(-c2ccc3ncnc(-c4cccc(C(=O)N5CCN(C)CC5)c4)c3c2)cc1S(=O)(=O)N1CCCC1` [22′, (3-{6-[4-Methoxy-3-(pyrrolidine-1-sulfonyl)-phenyl]-quinazolin-4-yl}-phenyl)-(4-methyl-piperazin-1-yl)-methanone], the IC50 in assay [1] is 11.5 nM; in assay [2], 790 nM.

Turning to `CC1(C)CN(C(=O)c2cncc(-c3ncnc4ccc(-c5cnc(N)nc5)cc34)c2)CCO1` [65′], the IC50 in assay [1] amounted to 10 nM; in assay [2], 640 nM.

The compound `COc1ccc(-c2ccc3ncnc(-c4cccc(C(=O)N5CCNC(C)(C)C5)c4)c3c2)cn1` [88′] displayed an IC50 in assay [1] of at most 2.67 nM.

As for `COc1ncc(N2CCc3ncnc(O[C@H]4CCN(C(=O)C5CCOCC5)C4)c3C2)cc1C` [Example 1, {(S)-3-[6-(6-Methoxy-5-methyl-pyridin-3-yl)-5,6,7,8-tetrahydro-pyrido[4,3-d]pyrimidin-4-yloxy]-pyrrolidin-1-yl}-(tetrahydro-pyran-4-yl)-methanone], the IC50 was 211 nM in assay [3], 50 nM in assay [4] and 327 nM in assay [5].
